Here are results for four compounds from US3953497A, “2,4,6-Triiodo-5-methoxyacetamido-N-methylisophthalamic acid and salts, acyl halides and esters thereof” (Mallinckrodt, Inc., priority 1974, dated 1976).

Data set [1] is described as follows: Solubility of the sodium salt in water. Format: physicochemical. As to the method:
2,4,6-Triiodo-5-methoxyacetamido-N-methylisophthalamic acid (6.005 g.) was dissolved in water with NaOH solution at pH 7.4 to form a supersaturated solution (7.0 ml.). When the solution was allowed to stand at room temperature overnight, crystallization occurred. The crystals were collected and dried.
The sodium salt (2.71 g.) was then dissolved in water to form an 82% w/v solution (3.3 ml.). After the solution was allowed to stand at 24° overnight some crystallization occurred. The solution was stirred and the supernatant was taken (by centrifugation) for specific gravity measurement (sp. gr. 1.43) and for water determination (found, […] by Karl Fischer method). The solubility of the sodium salt in water was therefore determined to be about 70% w/v at 24°.

Data set [2] relates to rats. Particulars: Priewe et al., DAS 1,129,260/1962; cited from earlier work.
Data set [3] deals with dogs. Particulars: Pfeiffer et al., DOS 2,118,219/1972; cited from earlier work.
The subject of data set [4] is man. Particulars: Pfeiffer et al., DOS 2,118,219/1972; cited from earlier work.
The test system of data set [5] is Swiss Albino mice (Charles River). Put plainly: Acute Intravenous Toxicity Studies in Mice (LD50). Format: in vivo. To be noted: lateral tail vein, 1 ml/min, solutions containing 28.27% of iodine, seven day observation. As to the method: (§1) The techniques utilized are outlined below.
I. Acute Intravenous Toxicity Studies in Mice
Swiss Albino mice (Charles River) were dosed in the lateral tail vein with solutions of the iodinated compound containing 28.27% of iodine, injected at the rate of 1 ml/min. […] The LD50 values were calculated by the method of Litchfield and Wilcoxon (J. of Pharmac. and Exptl. Therap. 96:99-113, 1949).

The nature of data set [6]: in vivo. To be noted: mouse, intracerebral, fixed volumes of various concentrations, seven day observation, meglumine salt, read-out: LD50 of Meglumine Salt, Intracerebral (Mice).
From the text: as §1
II. Intracerebral Toxicity in Mice
Swiss Albino mice (Charles River) were used. […] The animals were observed immediately after injections and daily throughout a seven day observation period.

Data set [7] is described as follows: in vivo. To be noted: rat, intracisternal, two day observation, meglumine salt, read-out: LD50 of Meglumine Salt, Intracisternal (Rats).
From the text: as §1
III. Intracisternal Toxicity in Rats
Sprague Dawley (Carworth) rats were used. […] After dosing, the animals were housed individually, and observed for immediate reactions and periodically for a two day observation period.

One may read the solubility (thermodynamic) as the concentration in solution at equilibrium with solid. For orientation: LD50 means the dose expected to kill half of the subjects tested.

As to `CNC(=O)c1c(I)c(NC(=O)COC)c(I)c(C(=O)[O-])c1I.[Na+]`, the solubility (thermodynamic) in data set [1] (24°, sodium salt, from specific gravity and Karl Fischer water of supernatant) is ~700 mg/mL. In addition, the “temperature dependence of solubility” value in data set [1] (sodium salt in water) is given as “highly temperature dependent”.

On to `COCC(=O)Nc1c(I)c(NC(C)=O)c(I)c(C(=O)O)c1I` [3-acetamido-5-methoxyacetamido-2,4,6-triiodobenzoic acid], for which the “LD50 (i.v. in rats)” value in data set [2] was 16000 mg/kg. Besides, the “circulatory disturbances in dogs” value in data set [3] is “strong circulatory disturbances”. Also, the “circulatory disturbances in man” value in data set [4] is reported as “strong circulatory disturbances”.

As for `CNC(=O)c1c(I)c(NC(C)=O)c(I)c(C(=O)O)c1I` [Iothalamic Acid, 5-acetamido-2,4,6-triiodo-N-methylisophthalamic acid, reference compound], the “LD50 of Meglumine Salt, I.V. (Mice)” value in data set [5] is 5742 mg. contained iodine/kg. anima.

As for `CNC(=O)c1c(I)c(NC(=O)COC)c(I)c(C(=O)O)c1I` [meglumine 2,4,6-triiodo-5-methoxyacetamido-N-methylisophthalamate], the “LD50 of Meglumine Salt, I.V. (Mice)” value in data set [5] is on record as 6700 mg. contained iodine/kg. anima. Besides, the 50% lethal dose (LD50) at 168 h in data set [6] came to 700 mg/kg. In addition, the median lethal dose (LD50) at 48 h in data set [7] is 40 mg/kg.
